Calls of active or inactive are those of the source. Residues, ends and D or L forms follow the SMILES beside them. *: point of attachment. Cbz = O=C(OCc1ccccc1)*
How the values were obtained:
[1] = target: T1, Caspase-4 (Homo sapiens) (UniProt P49662); assay: Inhibition of human recombinant caspase4 upto 50 uM
T1 sequence (whole entry): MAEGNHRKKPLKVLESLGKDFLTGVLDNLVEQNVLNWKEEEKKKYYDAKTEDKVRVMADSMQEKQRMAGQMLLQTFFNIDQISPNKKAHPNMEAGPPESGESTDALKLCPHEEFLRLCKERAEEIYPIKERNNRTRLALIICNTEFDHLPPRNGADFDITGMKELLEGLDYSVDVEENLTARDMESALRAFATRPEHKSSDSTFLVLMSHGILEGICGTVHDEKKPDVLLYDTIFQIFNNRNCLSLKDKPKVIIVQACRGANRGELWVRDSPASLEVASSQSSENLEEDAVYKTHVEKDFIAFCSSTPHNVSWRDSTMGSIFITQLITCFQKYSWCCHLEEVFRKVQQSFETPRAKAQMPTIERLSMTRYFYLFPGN

[2] = target: T2, Caspase-2 (Homo sapiens) (UniProt P42575); assay: Inhibition of human recombinant caspase2 upto 50 uM
T2 sequence (whole entry): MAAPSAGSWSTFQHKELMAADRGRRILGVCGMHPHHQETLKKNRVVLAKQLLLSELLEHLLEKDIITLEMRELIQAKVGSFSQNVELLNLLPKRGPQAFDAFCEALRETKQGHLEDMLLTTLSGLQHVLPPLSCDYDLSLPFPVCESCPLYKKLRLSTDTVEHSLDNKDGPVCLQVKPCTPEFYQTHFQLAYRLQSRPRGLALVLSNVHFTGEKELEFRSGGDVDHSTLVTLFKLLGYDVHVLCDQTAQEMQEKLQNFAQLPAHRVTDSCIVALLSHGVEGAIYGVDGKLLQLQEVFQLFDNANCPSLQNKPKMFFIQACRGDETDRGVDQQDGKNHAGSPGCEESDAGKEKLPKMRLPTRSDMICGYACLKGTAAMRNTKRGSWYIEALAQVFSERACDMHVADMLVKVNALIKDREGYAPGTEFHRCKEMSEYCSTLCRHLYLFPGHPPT

[3] = target: T3, Caspase-9 (Homo sapiens) (UniProt P55211); assay: Inhibition of human recombinant caspase9 upto 50 uM
T3 sequence (whole entry): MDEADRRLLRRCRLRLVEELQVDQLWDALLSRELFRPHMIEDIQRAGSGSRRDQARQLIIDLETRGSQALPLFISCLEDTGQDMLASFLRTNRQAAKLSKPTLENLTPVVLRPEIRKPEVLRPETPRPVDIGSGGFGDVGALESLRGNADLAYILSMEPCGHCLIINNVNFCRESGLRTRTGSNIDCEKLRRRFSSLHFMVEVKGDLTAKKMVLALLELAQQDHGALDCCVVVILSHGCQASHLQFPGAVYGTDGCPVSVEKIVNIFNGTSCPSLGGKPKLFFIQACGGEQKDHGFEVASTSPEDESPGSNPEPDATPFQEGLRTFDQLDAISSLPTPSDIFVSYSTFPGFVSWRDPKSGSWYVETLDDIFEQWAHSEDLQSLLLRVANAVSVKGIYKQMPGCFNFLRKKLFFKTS

Measured: Activity

O=C(CN1C(=O)[C@H](COC(=O)Nc2ccc(Cl)cc2C(F)(F)F)N=C(c2ccccc2)c2ccccc21)N[C@H]1CC(=O)OC1O (stereo partly drawn)
inactive: all assays above

O=C(CN1C(=O)[C@@H](COC(=O)Nc2ccc(F)cc2F)N=C(c2ccccc2)c2ccccc21)N[C@H]1CC(=O)OC1O (stereo partly drawn)
inactive: all assays above

O=C(CN1C(=O)[C@@H](COC(=O)Nc2ccc(F)cc2)N=C(c2ccccc2)c2ccccc21)N[C@H]1CC(=O)OC1O (stereo partly drawn)
inactive: all assays above

CC(C)[C@H](NC(=O)OCc1ccccc1)C(=O)N[C@H](C=O)Cc1ccccc1 (Cbz-Val-Phe-aldehyde)
inactive: all assays above

O=C(CN1C(=O)[C@@H](COC(=O)Nc2c(F)cc(F)cc2Br)N=C(c2ccccc2)c2ccccc21)N[C@H]1CC(=O)OC1O (stereo partly drawn)
inactive: all assays above

O=C(CN1C(=O)[C@@H](COC(=O)Nc2ccc(Cl)cc2)N=C(c2ccccc2)c2ccccc21)N[C@H]1CC(=O)OC1O (stereo partly drawn)
inactive: all assays above

O=C(CN1C(=O)[C@@H](COC(=O)Nc2cccc3ccccc23)N=C(c2ccccc2)c2ccccc21)N[C@H]1CC(=O)OC1O (stereo partly drawn)
inactive: all assays above

O=C(CN1C(=O)[C@@H](COC(=O)Nc2ccccc2)N=C(c2ccccc2)c2ccccc21)N[C@H]1CC(=O)OC1O (stereo partly drawn)
inactive: all assays above

COc1ccc(NC(=O)OC[C@H]2N=C(c3ccccc3)c3ccccc3N(CC(=O)N[C@H]3CC(=O)OC3O)C2=O)cc1 (stereo partly drawn)
inactive: all assays above

Cc1cc(Cl)ccc1NC(=O)OC[C@H]1N=C(c2ccccc2)c2ccccc2N(CC(=O)N[C@H]2CC(=O)OC2O)C1=O (stereo partly drawn)
inactive: all assays above

O=C(CN1C(=O)[C@@H](COC(=O)Nc2ccc(Cl)cc2C(F)(F)F)N=C(c2ccccc2)c2ccccc21)N[C@H]1CC(=O)OC1O (stereo partly drawn)
inactive: all assays above
